According to patent US20230263822A1, “MODULATION OF FACTOR 11 EXPRESSION” (Ionis Pharmaceuticals, Inc., priority 2008, published 2023):

Columns and labels:
[1] = Kidney function, BUN, urine protein to creatinine ratio in cynomolgus monkeys (Example 46); type: in vivo; details: for Urine protein/creatinine ratio: day 49
Experimental: Groups, each consisting of two male and two female monkeys, were injected subcutaneously with 25 mg/kg of ISIS 416850, ISIS 449709, ISIS 445522, ISIS 449710, ISIS 449707, ISIS 449711, ISIS 449708, 416858, and ISIS 445531. Antisense oligonucleotide was administered to the monkeys at 25 mg/kg three times per week for week 1 and 25 mg/kg twice per week for weeks 2 to 8. A control group, consisting of two male and two female monkeys was injected subcutaneously with PBS according to the same dosing regimen. Body weights were taken 14 days and 7 days before the start of treatment and were then measured weekly throughout the treatment period. Blood samples were collected 14 days and 5 days before the start of treatment and subsequently several times during the dosing regimen for PT and aPTT measurements, and measurement of various hematologic factors. On day 55, the monkeys were euthanized by exsanguination while under deep anesthesia, and organs harvested for further analysis.
To evaluate the impact of ISIS oligonucleotides on kidney function, urine samples were collected on different days. […] The ratio of urine protein to creatinine in urine samples after antisense oligonucleotide treatment was also calculated for day 49 and results are presented in Table 156. As observed in Tables 155 and 156, there were no significant increases in any of the kidney metabolic markers after antisense oligonucleotide treatment.

blood coagulation = test: PT and aPTT assay in cynomolgus monkeys (Example 45); type: in vivo; details: platelet poor plasma
Experimental: Groups, each consisting of two male and three female monkeys, were injected subcutaneously with ISIS 416838, ISIS 416850, ISIS 416858, ISIS 416864, or ISIS 417002 in escalating doses. Antisense oligonucleotide was administered to the monkeys at 5 mg/kg three times per a week for week 1; 5 mg/kg twice per week for weeks 2 and 3; 10 mg/kg three times per week for week 4; 10 mg/kg twice per week for weeks 5 and 6; 25 mg/kg three times per week for week 7; and 25 mg/kg twice per week for weeks 8, 9, 10, 11, and 12. One control group, consisting of two male and three female monkeys, was injected subcutaneously with PBS according to the same dosing regimen. An additional experimental group, consisting of two male and three female monkeys, was injected subcutaneously with ISIS 416850 in a chronic, lower dose regimen. Antisense oligonucleotide was administered to the monkeys at 5 mg/kg three times per week for week 1; 5 mg/kg twice per week for week 2 and 3; 10 mg/kg three times per week for week 4; and 10 mg/kg twice per week for weeks 5 to 12. Body weights were measured weekly. Blood samples were collected 14 days and 5 days before the start of treatment and subsequently once per week for Factor 11 protein activity analysis in plasma, fibrinogen measurement, PT and aPTT measurements, bleeding times, and measurement of various hematologic factors. On day 85, the monkeys were euthanized by exsanguination while under deep anesthesia, and organs harvested for further analysis.
Blood samples were collected in tubes containing sodium citrate. PT and aPTT were determined in duplicate with an ACL 9000 coagulation instrument (Instrumentation Laboratory, Italy). The results were interpolated on a standard curve of serial dilutions citrated control monkey plasma tested to give a reported result in percent normal.
Prothrombin Time (PT) and Activated Partial Thromboplastin Time (aPTT) were measured using platelet poor plasma (PPP) from monkeys treated with ISIS oligonucleotides. PT and aPTT values are provided in Tables 116 and 117 and are reported as International Normalized Ratio (INR) values. INR values for PT and aPTT were determined by dividing the PT or aPTT value for each experimental group by the PT or aPTT for the PBS treated group. This ratio was then raised to the power of the International Sensitivity Index (ISI) of the tissue factor used. The ISIS oligonucleotide, ISIS 416850, given with the chronic dose regimen is distinguished from the other oligonucleotides with an asterisk (*).

[2] = Tolerability in CD1 mice: kidney function, BUN (Example 37); details: plasma, 50 mg/kg s.c. twice per week for 6 weeks
[3] = Day −5 (before start of treatment)
[4] = Day −14 (before start of treatment)
[5] = day 8, chronic dose regimen (*)
[6] = day 15, chronic dose regimen (*)
[7] = day 15, escalating dose regimen
[8] = day 22, chronic dose regimen (*)
[9] = day 22, escalating dose regimen
[10] = day 29, chronic dose regimen (*)
[11] = day 29, escalating dose regimen
[12] = day 36, chronic dose regimen (*)
[13] = day 36, escalating dose regimen
[14] = day 43, chronic dose regimen (*)
[15] = day 43, escalating dose regimen
[16] = day 50, chronic dose regimen (*)
[17] = day 50, escalating dose regimen
[18] = day 57, escalating dose regimen
[19] = day 64, escalating dose regimen
[20] = day 71, escalating dose regimen
[21] = day 78, escalating dose regimen
[22] = day 85, escalating dose regimen
[23] = day −5, chronic dose regimen (*)
[24] = day −5, escalating dose regimen
[25] = day −14, chronic dose regimen (*)
[26] = day −14, escalating dose regimen

ISIS 416850: MOE gapmer, nucleobases 1275 to 1318 of SEQ ID NO: 1 (Table 8) (antisense TGCACAGTTTCTGGCAGGCC; MOE gapmer, wing and gap sizes not given here)
BUN levels ([1]; Day 31): 21 mg/dL | BUN levels ([1]; Day 55): 26 mg/dL | BUN levels [1, 3]: 23 mg/dL | BUN levels [1, 4]: 24 mg/dL | Urine protein/creatinine ratio [1]: 0.08 | PT ratio (INR) (blood coagulation; [5]): 1.03 | aPTT ratio (INR) (blood coagulation; [5]): 1.12 | PT ratio (INR) (blood coagulation; day 8, escalating dose regimen): 1.00 | aPTT ratio (INR) (blood coagulation; day 8, escalating dose regimen): 1.05 | PT ratio (INR) (blood coagulation; [6]): 1.06 | aPTT ratio (INR) (blood coagulation; [6]): 1.07 | PT ratio (INR) (blood coagulation; [7]): 1.02 | aPTT ratio (INR) (blood coagulation; [7]): 1.05 | PT ratio (INR) (blood coagulation; [8]): 1.06 | aPTT ratio (INR) (blood coagulation; [8]): 1.21 | PT ratio (INR) (blood coagulation; [9]): 1.02 | aPTT ratio (INR) (blood coagulation; [9]): 1.13 | PT ratio (INR) (blood coagulation; [10]): 1.00 | aPTT ratio (INR) (blood coagulation; [10]): 1.26 | PT ratio (INR) (blood coagulation; [11]): 1.03 | aPTT ratio (INR) (blood coagulation; [11]): 1.13 | PT ratio (INR) (blood coagulation; [12]): 1.06 | aPTT ratio (INR) (blood coagulation; [12]): 1.34 | PT ratio (INR) (blood coagulation; [13]): 1.02 | aPTT ratio (INR) (blood coagulation; [13]): 1.26 | PT ratio (INR) (blood coagulation; [14]): 1.02 | aPTT ratio (INR) (blood coagulation; [14]): 1.22 | PT ratio (INR) (blood coagulation; [15]): 1.01 | aPTT ratio (INR) (blood coagulation; [15]): 1.17 | PT ratio (INR) (blood coagulation; [16]): 0.98 | aPTT ratio (INR) (blood coagulation; [16]): 1.35 | PT ratio (INR) (blood coagulation; [17]): 1.02 | aPTT ratio (INR) (blood coagulation; [17]): 1.68 | PT ratio (INR) (blood coagulation; [18]): 1.04 | aPTT ratio (INR) (blood coagulation; [18]): 1.59 | PT ratio (INR) (blood coagulation; [19]): 1.03 | aPTT ratio (INR) (blood coagulation; [19]): 1.64 | PT ratio (INR) (blood coagulation; [20]): 1.03 | aPTT ratio (INR) (blood coagulation; [20]): 1.76 | PT ratio (INR) (blood coagulation; [21]): 1.05 | aPTT ratio (INR) (blood coagulation; [21]): 1.88 | PT ratio (INR) (blood coagulation; [22]): 1.04 | aPTT ratio (INR) (blood coagulation; [22]): 1.99 | PT ratio (INR) (blood coagulation; [23]): 1.00 | aPTT ratio (INR) (blood coagulation; [23]): 1.00 | PT ratio (INR) (blood coagulation; [24]): 1.00 | aPTT ratio (INR) (blood coagulation; [24]): 1.00 | PT ratio (INR) (blood coagulation; [25]): 1.00 | aPTT ratio (INR) (blood coagulation; [25]): 1.00 | PT ratio (INR) (blood coagulation; [26]): 1.00 | aPTT ratio (INR) (blood coagulation; [26]): 1.00 | BUN [2]: 24 mg/dL

ISIS 416858: MOE gapmer, nucleobases 1275 to 1318 of SEQ ID NO: 1 (Table 8) (antisense ACGGCATTGGTGCACAGTTT; MOE gapmer, wing and gap sizes not given here)
BUN levels ([1]; Day 31): 23 mg/dL | BUN levels ([1]; Day 55): 24 mg/dL | BUN levels [1, 3]: 24 mg/dL | BUN levels [1, 4]: 25 mg/dL | Urine protein/creatinine ratio [1]: 0.05 | PT ratio (INR) (blood coagulation; day 8, escalating dose regimen): 1.05 | aPTT ratio (INR) (blood coagulation; day 8, escalating dose regimen): 1.03 | PT ratio (INR) (blood coagulation; [7]): 1.07 | aPTT ratio (INR) (blood coagulation; [7]): 1.07 | PT ratio (INR) (blood coagulation; [9]): 1.06 | aPTT ratio (INR) (blood coagulation; [9]): 1.18 | PT ratio (INR) (blood coagulation; [11]): 1.08 | aPTT ratio (INR) (blood coagulation; [11]): 1.20 | PT ratio (INR) (blood coagulation; [13]): 1.07 | aPTT ratio (INR) (blood coagulation; [13]): 1.36 | PT ratio (INR) (blood coagulation; [15]): 1.08 | aPTT ratio (INR) (blood coagulation; [15]): 1.28 | PT ratio (INR) (blood coagulation; [17]): 1.03 | aPTT ratio (INR) (blood coagulation; [17]): 1.55 | PT ratio (INR) (blood coagulation; [18]): 1.09 | aPTT ratio (INR) (blood coagulation; [18]): 1.59 | PT ratio (INR) (blood coagulation; [19]): 1.09 | aPTT ratio (INR) (blood coagulation; [19]): 1.60 | PT ratio (INR) (blood coagulation; [20]): 1.07 | aPTT ratio (INR) (blood coagulation; [20]): 1.70 | PT ratio (INR) (blood coagulation; [21]): 1.10 | aPTT ratio (INR) (blood coagulation; [21]): 1.79 | PT ratio (INR) (blood coagulation; [22]): 1.07 | aPTT ratio (INR) (blood coagulation; [22]): 1.76 | PT ratio (INR) (blood coagulation; [24]): 1.00 | aPTT ratio (INR) (blood coagulation; [24]): 1.00 | PT ratio (INR) (blood coagulation; [26]): 1.00 | aPTT ratio (INR) (blood coagulation; [26]): 1.00 | BUN [2]: 23 mg/dL

ISIS 416864: MOE gapmer, nucleobases 1275 to 1318 of SEQ ID NO: 1 (Table 8) (antisense GGCAGCGGACGGCATTGGTG; MOE gapmer, wing and gap sizes not given here)
PT ratio (INR) (blood coagulation; day 8, escalating dose regimen): 1.02 | aPTT ratio (INR) (blood coagulation; day 8, escalating dose regimen): 1.05 | PT ratio (INR) (blood coagulation; [7]): 1.07 | aPTT ratio (INR) (blood coagulation; [7]): 1.03 | PT ratio (INR) (blood coagulation; [9]): 1.03 | aPTT ratio (INR) (blood coagulation; [9]): 1.11 | PT ratio (INR) (blood coagulation; [11]): 1.06 | aPTT ratio (INR) (blood coagulation; [11]): 1.13 | PT ratio (INR) (blood coagulation; [13]): 1.06 | aPTT ratio (INR) (blood coagulation; [13]): 1.19 | PT ratio (INR) (blood coagulation; [15]): 1.04 | aPTT ratio (INR) (blood coagulation; [15]): 1.07 | PT ratio (INR) (blood coagulation; [17]): 1.01 | aPTT ratio (INR) (blood coagulation; [17]): 1.26 | PT ratio (INR) (blood coagulation; [18]): 1.08 | aPTT ratio (INR) (blood coagulation; [18]): 1.19 | PT ratio (INR) (blood coagulation; [19]): 1.10 | aPTT ratio (INR) (blood coagulation; [19]): 1.12 | PT ratio (INR) (blood coagulation; [20]): 1.07 | aPTT ratio (INR) (blood coagulation; [20]): 1.18 | PT ratio (INR) (blood coagulation; [21]): 1.08 | aPTT ratio (INR) (blood coagulation; [21]): 1.18 | PT ratio (INR) (blood coagulation; [22]): 1.13 | aPTT ratio (INR) (blood coagulation; [22]): 1.25 | PT ratio (INR) (blood coagulation; [24]): 1.00 | aPTT ratio (INR) (blood coagulation; [24]): 1.00 | PT ratio (INR) (blood coagulation; [26]): 1.00 | aPTT ratio (INR) (blood coagulation; [26]): 1.00 | BUN [2]: 24 mg/dL
